Columns and labels:
Format in all cases: cell-based
WEE1 = target: T1, WEE1 (Homo sapiens, UniProt P30291+Q96SW2); assay: Western blot degradation of WEE1 in hPBMC
T1 construct: endogenous in cells; host or cells: hPBMC
Summary of the method: (§1)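 Percent target remaining and DC50 derive from grayscale of Western bands in degrader-treated hPBMC, normalized to an internal control protein and compared with DMSO samples. Gels were SDS-PAGE, transferred onto nitrocellulose and blocked one hour at room temperature.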

IKZF1 = target: T2, IKZF1 (Homo sapiens, UniProt Q13422+Q96SW2); assay: Western blot degradation of IKZF1 in hPBMC
T2 construct: endogenous in cells; host or cells: hPBMC
Summary of the method: as §1

IKZF2 = target: T3, IKZF2 (Homo sapiens, UniProt Q96SW2+Q9UKS7); assay: Western blot degradation of IKZF2 in hPBMC
T3 construct: endogenous in cells; host or cells: hPBMC
Summary of the method: as §1

IKZF3 = target: T4, IKZF3 (Homo sapiens, UniProt Q96SW2+Q9UKT9); assay: Western blot degradation of IKZF3 in hPBMC
T4 construct: endogenous in cells; host or cells: hPBMC
Summary of the method: as §1

CK1a = target: T5, CK1a (Homo sapiens, UniProt P48729+Q96SW2); assay: Western blot degradation of CK1a in hPBMC
T5 construct: endogenous in cells; host or cells: hPBMC
Summary of the method: as §1

GSPT1 = target: T6, GSPT1 (Homo sapiens, UniProt P15170+Q96SW2); assay: Western blot degradation of GSPT1 in hPBMC
T6 construct: endogenous in cells; host or cells: hPBMC
Summary of the method: as §1

T2 sequence (Q13422 whole entry): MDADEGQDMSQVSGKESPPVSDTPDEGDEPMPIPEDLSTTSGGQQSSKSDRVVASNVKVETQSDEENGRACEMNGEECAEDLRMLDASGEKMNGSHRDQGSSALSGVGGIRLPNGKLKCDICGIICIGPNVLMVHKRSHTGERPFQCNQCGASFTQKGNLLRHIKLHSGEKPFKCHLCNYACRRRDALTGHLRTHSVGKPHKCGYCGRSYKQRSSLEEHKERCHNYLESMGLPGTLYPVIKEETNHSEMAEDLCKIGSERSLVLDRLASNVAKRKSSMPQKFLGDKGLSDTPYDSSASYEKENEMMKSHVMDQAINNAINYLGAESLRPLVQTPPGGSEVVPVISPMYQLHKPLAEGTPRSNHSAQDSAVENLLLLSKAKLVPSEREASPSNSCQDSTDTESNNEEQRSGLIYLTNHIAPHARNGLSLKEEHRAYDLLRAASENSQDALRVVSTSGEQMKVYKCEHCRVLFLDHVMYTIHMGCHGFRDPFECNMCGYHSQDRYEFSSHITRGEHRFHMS
T2 sequence (Q96SW2 whole entry): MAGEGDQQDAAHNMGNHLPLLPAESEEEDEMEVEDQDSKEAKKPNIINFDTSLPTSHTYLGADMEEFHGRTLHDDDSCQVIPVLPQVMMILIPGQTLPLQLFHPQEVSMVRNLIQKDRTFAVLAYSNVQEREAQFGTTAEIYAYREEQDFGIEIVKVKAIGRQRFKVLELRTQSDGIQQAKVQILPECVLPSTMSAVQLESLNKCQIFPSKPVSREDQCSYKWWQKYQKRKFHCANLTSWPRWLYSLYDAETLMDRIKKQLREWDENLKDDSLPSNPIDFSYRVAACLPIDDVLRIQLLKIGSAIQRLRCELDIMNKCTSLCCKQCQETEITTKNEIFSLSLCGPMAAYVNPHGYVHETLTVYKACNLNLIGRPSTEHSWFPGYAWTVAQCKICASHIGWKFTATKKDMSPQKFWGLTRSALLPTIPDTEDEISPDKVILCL
T2 sequence (Q16531 whole entry partner): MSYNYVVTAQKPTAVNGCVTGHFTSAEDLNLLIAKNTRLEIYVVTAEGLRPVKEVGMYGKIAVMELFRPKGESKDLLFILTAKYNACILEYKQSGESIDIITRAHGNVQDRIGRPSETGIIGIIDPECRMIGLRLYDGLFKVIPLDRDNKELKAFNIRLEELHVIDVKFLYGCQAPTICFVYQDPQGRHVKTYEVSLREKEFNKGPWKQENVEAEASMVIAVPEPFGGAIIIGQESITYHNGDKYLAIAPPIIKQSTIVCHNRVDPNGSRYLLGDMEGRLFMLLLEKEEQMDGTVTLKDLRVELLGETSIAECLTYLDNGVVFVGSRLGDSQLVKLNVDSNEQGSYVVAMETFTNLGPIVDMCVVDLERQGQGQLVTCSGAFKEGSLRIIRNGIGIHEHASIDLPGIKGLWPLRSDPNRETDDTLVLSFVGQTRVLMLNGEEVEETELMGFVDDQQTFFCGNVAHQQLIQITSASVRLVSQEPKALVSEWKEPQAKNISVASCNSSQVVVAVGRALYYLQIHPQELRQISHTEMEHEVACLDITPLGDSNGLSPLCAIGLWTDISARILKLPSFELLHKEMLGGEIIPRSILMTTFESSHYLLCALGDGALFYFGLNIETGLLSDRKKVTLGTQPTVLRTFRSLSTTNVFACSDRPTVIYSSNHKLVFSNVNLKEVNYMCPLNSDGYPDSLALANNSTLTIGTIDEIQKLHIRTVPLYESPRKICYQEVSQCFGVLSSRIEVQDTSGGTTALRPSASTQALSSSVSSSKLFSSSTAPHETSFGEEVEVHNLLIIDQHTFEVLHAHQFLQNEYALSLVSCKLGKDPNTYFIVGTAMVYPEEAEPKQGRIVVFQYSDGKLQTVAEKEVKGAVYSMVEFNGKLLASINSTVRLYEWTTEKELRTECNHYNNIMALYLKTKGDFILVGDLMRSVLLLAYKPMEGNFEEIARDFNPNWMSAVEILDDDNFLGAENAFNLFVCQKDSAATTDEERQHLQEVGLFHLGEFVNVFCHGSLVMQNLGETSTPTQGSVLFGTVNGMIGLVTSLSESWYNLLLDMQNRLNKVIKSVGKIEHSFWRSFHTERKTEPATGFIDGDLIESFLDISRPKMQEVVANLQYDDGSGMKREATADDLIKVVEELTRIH
T6 sequence (P15170 whole entry): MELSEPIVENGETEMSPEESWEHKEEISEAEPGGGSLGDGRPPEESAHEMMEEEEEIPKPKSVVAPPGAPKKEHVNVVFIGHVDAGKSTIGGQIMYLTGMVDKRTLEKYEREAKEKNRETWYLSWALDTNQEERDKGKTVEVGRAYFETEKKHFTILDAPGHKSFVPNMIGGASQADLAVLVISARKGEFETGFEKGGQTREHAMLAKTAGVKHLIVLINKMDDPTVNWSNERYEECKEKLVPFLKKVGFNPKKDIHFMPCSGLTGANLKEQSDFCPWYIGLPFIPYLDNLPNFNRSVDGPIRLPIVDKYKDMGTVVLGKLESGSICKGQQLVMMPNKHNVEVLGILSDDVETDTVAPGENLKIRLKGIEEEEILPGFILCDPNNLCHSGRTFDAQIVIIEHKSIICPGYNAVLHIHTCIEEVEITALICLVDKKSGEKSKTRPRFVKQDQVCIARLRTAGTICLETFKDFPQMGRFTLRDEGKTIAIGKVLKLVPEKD
T6 sequence (Q96SW2 whole entry): as the sequence (Q96SW2 whole entry) above
T6 sequence (Q16531 whole entry partner): as the sequence (Q16531 whole entry partner) above
T4 sequence (Q9UKT9 whole entry): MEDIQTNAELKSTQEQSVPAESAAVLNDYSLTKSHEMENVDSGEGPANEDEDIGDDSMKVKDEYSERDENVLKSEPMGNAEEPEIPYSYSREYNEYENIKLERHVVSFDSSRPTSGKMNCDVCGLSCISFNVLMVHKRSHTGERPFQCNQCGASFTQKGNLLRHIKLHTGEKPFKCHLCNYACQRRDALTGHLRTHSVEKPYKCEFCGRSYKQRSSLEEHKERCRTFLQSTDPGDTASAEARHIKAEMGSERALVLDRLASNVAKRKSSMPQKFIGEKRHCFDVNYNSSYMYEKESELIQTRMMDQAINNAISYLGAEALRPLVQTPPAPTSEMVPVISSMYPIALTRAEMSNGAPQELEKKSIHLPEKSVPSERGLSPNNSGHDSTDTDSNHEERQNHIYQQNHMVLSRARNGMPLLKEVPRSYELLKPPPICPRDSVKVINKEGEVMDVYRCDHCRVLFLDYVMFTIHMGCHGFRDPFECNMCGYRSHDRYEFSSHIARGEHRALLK
T4 sequence (Q96SW2 whole entry): as the sequence (Q96SW2 whole entry) above
T4 sequence (Q16531 whole entry partner): as the sequence (Q16531 whole entry partner) above
T5 sequence (P48729 whole entry): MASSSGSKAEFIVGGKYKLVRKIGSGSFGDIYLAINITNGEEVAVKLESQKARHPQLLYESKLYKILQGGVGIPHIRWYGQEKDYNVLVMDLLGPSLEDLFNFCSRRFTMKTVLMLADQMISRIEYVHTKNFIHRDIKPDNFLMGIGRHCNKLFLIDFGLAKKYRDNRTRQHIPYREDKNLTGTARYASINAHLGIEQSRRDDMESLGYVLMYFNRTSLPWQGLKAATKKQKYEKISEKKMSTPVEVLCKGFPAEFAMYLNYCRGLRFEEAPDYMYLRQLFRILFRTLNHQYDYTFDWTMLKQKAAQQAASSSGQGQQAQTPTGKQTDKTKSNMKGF
T5 sequence (Q96SW2 whole entry): as the sequence (Q96SW2 whole entry) above
T5 sequence (Q16531 whole entry partner): as the sequence (Q16531 whole entry partner) above
T3 sequence (Q9UKS7 whole entry): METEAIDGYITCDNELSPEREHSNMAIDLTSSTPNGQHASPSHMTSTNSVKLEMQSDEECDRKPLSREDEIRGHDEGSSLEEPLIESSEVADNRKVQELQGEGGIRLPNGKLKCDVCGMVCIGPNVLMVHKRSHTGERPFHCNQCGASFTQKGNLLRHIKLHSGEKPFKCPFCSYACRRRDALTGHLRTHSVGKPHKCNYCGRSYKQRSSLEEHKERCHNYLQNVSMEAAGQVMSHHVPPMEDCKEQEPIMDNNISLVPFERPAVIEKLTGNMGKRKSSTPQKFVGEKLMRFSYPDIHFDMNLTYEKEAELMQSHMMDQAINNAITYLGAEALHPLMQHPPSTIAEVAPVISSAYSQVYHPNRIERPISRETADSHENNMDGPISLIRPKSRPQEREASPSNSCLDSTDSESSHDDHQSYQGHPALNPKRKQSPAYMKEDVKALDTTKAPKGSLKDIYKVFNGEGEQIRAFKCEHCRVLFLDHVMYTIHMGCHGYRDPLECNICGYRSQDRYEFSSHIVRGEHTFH
T3 sequence (Q96SW2 whole entry): as the sequence (Q96SW2 whole entry) above
T3 sequence (Q16531 whole entry partner): as the sequence (Q16531 whole entry partner) above

Row | SMILES | Degradation of substrate protein WEE1 (substrate protein remaining %) (WEE1) | Degradation of substrate protein IKZF1 (substrate protein remaining %) (IKZF1) | Degradation of substrate protein IKZF2 (substrate protein remaining %) (IKZF2) | Degradation of substrate protein IKZF3 (substrate protein remaining %) (IKZF3) | Degradation of substrate protein CK1a (substrate protein remaining %) (CK1a) | Degradation of substrate protein GSPT1 (substrate protein remaining %) (GSPT1)
1 | O=C1CCC(c2ccc(CO)nn2)C(=O)N1 (stereo not drawn) [GT-07636, 3-(6-(hydroxymethyl)pyridazin-3-yl)piperidine-2,6-dione] | B (B is defined as substrate protein remaining % > 80%) | A (A is defined as 0% ≤ substrate protein remaining % ≤ 80%) | A (A is defined as 0% ≤ substrate protein remaining % ≤ 80%) | A (A is defined as 0% ≤ substrate protein remaining % ≤ 80%) | B (B is defined as substrate protein remaining % > 80%) | A (A is defined as 0% ≤ substrate protein remaining % ≤ 80%)
2 | O=C1CCN(c2ccc(CCl)cn2)C(=O)N1 [GT-07009, 1-(5-(chloromethyl)pyridin-2-yl)dihydropyrimidine-2,4(1H,3H)-dione] | B (B is defined as substrate protein remaining % > 80%) | B (B is defined as substrate protein remaining % > 80%) | B (B is defined as substrate protein remaining % > 80%) | B (B is defined as substrate protein remaining % > 80%) | A (A is defined as 0% ≤ substrate protein remaining % ≤ 80%) | B (B is defined as substrate protein remaining % > 80%)
3 | O=C1CCN(c2cnc(CO)c(F)c2)C(=O)N1 [GT-07555, 1-(5-fluoro-6-(hydroxymethyl)pyridin-3-yl)dihydropyrimidine-2,4(1H,3H)-dione] | A (A is defined as 0% ≤ substrate protein remaining % ≤ 80%) | A (A is defined as 0% ≤ substrate protein remaining % ≤ 80%) | A (A is defined as 0% ≤ substrate protein remaining % ≤ 80%) | A (A is defined as 0% ≤ substrate protein remaining % ≤ 80%) | A (A is defined as 0% ≤ substrate protein remaining % ≤ 80%) | A (A is defined as 0% ≤ substrate protein remaining % ≤ 80%)
4 | O=C1CCN(c2cnc(CCl)cn2)C(=O)N1 [GT-07635, 1-(5-(chloromethyl)pyrazin-2-yl)dihydropyrimidine-2,4(1H,3H)-dione] | A (A is defined as 0% ≤ substrate protein remaining % ≤ 80%) | A (A is defined as 0% ≤ substrate protein remaining % ≤ 80%) | A (A is defined as 0% ≤ substrate protein remaining % ≤ 80%) | A (A is defined as 0% ≤ substrate protein remaining % ≤ 80%) | A (A is defined as 0% ≤ substrate protein remaining % ≤ 80%) | B (B is defined as substrate protein remaining % > 80%)
5 | O=C1CCN(c2cnc(F)c(CCl)c2)C(=O)N1 [GT-07633, 1-(5-(chloromethyl)-6-fluoropyridin-3-yl)dihydropyrimidine-2,4(1H,3H)-dione] | A (A is defined as 0% ≤ substrate protein remaining % ≤ 80%) | B (B is defined as substrate protein remaining % > 80%) | A (A is defined as 0% ≤ substrate protein remaining % ≤ 80%) | B (B is defined as substrate protein remaining % > 80%) | A (A is defined as 0% ≤ substrate protein remaining % ≤ 80%) | B (B is defined as substrate protein remaining % > 80%)
6 | O=C1CCN(c2cncc(CCl)c2)C(=O)N1 [GT-07047, 1-(5-(chloromethyl)pyridin-3-yl)dihydropyrimidine-2,4(1H,3H)-dione] | B (B is defined as substrate protein remaining % > 80%) | A (A is defined as 0% ≤ substrate protein remaining % ≤ 80%) | A (A is defined as 0% ≤ substrate protein remaining % ≤ 80%) | A (A is defined as 0% ≤ substrate protein remaining % ≤ 80%) | A (A is defined as 0% ≤ substrate protein remaining % ≤ 80%) | B (B is defined as substrate protein remaining % > 80%)
7 | O=C1CCC(Nc2cc(CO)ccn2)C(=O)N1 (stereo not drawn) [GT-07366, 3-((4-(hydroxymethyl)pyridin-2-yl)amino)piperidine-2,6-dione] | B (B is defined as substrate protein remaining % > 80%) | B (B is defined as substrate protein remaining % > 80%) | B (B is defined as substrate protein remaining % > 80%) | B (B is defined as substrate protein remaining % > 80%) | A (A is defined as 0% ≤ substrate protein remaining % ≤ 80%) | A (A is defined as 0% ≤ substrate protein remaining % ≤ 80%)
8 | O=C1CCC(c2ccc(CO)cn2)C(=O)N1 (stereo not drawn) [GT-07075, 3-(5-(hydroxymethyl)pyridin-2-yl)piperidine-2,6-dione] | B (B is defined as substrate protein remaining % > 80%) | B (B is defined as substrate protein remaining % > 80%) | A (A is defined as 0% ≤ substrate protein remaining % ≤ 80%) | A (A is defined as 0% ≤ substrate protein remaining % ≤ 80%) | B (B is defined as substrate protein remaining % > 80%) | A (A is defined as 0% ≤ substrate protein remaining % ≤ 80%)
9 | O=C1CCC(Nc2cnccc2CO)C(=O)N1 (stereo not drawn) [GT-07559, 3-((4-(hydroxymethyl)pyridin-3-yl)amino)piperidine-2,6-dione] | A (A is defined as 0% ≤ substrate protein remaining % ≤ 80%) | A (A is defined as 0% ≤ substrate protein remaining % ≤ 80%) | A (A is defined as 0% ≤ substrate protein remaining % ≤ 80%) | A (A is defined as 0% ≤ substrate protein remaining % ≤ 80%) | A (A is defined as 0% ≤ substrate protein remaining % ≤ 80%) | A (A is defined as 0% ≤ substrate protein remaining % ≤ 80%)

Reference: patent US20260274829A1, “NEW E3 UBIQUITIN LIGASE LIGAND, PROTEIN DEGRADATION AGENT AND USE THEREOF” (GLUETACS THERAPEUTICS (SHANGHAI) CO., LTD., priority 2023, published 2026)
